The source made the active and inactive calls. The rule behind the calls is not given here.
Legend:
Escherichia coli [1] = test: Antibacterial activity against penicillin-susceptible Escherichia coli ATCC25922 assessed as log reduction in bacterial count at 4 times of MIC measured after 1 hrs by time kill kinetics assay; type: functional
Escherichia coli [2] = test: Antibacterial activity against penicillin-susceptible Escherichia coli ATCC25922 assessed as log reduction in bacterial count at 1 times of MIC measured after 2 hrs by time kill kinetics assay; type: functional, organism-based
Cell membrane [3] = test: Disruption of cell membrane integrity in methicillin-resistant Staphylococcus aureus ATCC43300 assessed as leakage of intracellular contents at 4 times of MIC incubated for 2 hrs by transmission electron microscopic analysis; type: cell membranes
Cell membrane [4] = test: Disruption of cell membrane integrity in methicillin-resistant Staphylococcus aureus ATCC43300 assessed as increase in cellular debris at 4 times of MIC incubated for 2 hrs by transmission electron microscopic analysis; type: cell membranes
[5] = Cytotoxicity against mouse RAW264.7 cells assessed as cell viability at 3.125 microg/ml incubated for 24 hrs by CCK8 assay relative to control; type: toxicity, cell-based; conditions: dose 3.125 µg/ml, read-out: Activity
[6] = Cytotoxicity against mouse RAW264.7 cells assessed as cell viability at 6.25 microg/ml incubated for 24 hrs by CCK8 assay relative to control; type: toxicity, cell-based; conditions: at 6.25 µg/mL, read-out: Activity
Staphylococcus aureus [7] = test: Inhibition of biofilm formation in methicillin-resistant Staphylococcus aureus ATCC43300 assessed as decrease in biofilm formation rate at 4 times of MIC incubated for 24 hrs by crystal violet staining based analysis relative to control; type: functional; design: scale not given: the % may be the effect or the level left
Escherichia coli [8] = test: Antibacterial activity against penicillin-susceptible Escherichia coli ATCC25922 assessed as reduction in bacterial growth at 0.5 times of MIC incubated for 18 to 24 hrs and measured after 25 passages by drug resistance assay; type: functional, organism-based
Staphylococcus aureus [9] = test: Inhibition of biofilm formation in methicillin-resistant Staphylococcus aureus ATCC43300 assessed as decrease in biofilm formation rate at higher concentration incubated for 24 hrs by crystal violet staining based analysis relative to control; type: functional; design: scale not given: the % may be the effect or the level left
Escherichia coli [10] = test: Antibacterial activity against penicillin-susceptible Escherichia coli ATCC25922 assessed as log reduction in bacterial count measured after 8 hrs by time kill kinetics assay; type: functional, organism-based
Escherichia coli [11] = test: Drug resistance, ratio of MIC for penicillin-susceptible Escherichia coli ATCC25922 incubated for 18 to 24 hrs and measured after 4 passages to MIC for penicillin-susceptible Escherichia coli ATCC25922 measured after 18 to 24 hrs; type: functional
Staphylococcus aureus [12] = test: Inhibition of biofilm formation in methicillin-resistant Staphylococcus aureus ATCC43300 assessed as decrease in biofilm formation rate at 16 times of MIC incubated for 24 hrs by crystal violet staining based analysis relative to control; type: functional; design: scale not given: the % may be the effect or the level left

For `O=C1c2ccccc2-[n+]2ccc3c([nH]c4ccc(-c5ccccc5C(F)(F)F)cc43)c21.[Cl-]`, the Activity (Escherichia coli [1]) was 3 log10CFU/ml, the Activity (Escherichia coli [2]) was “inactive” and the Activity (Cell membrane [3]) was “Active”. For the same compound, the Activity (Cell membrane [4]) was “Active”, the viability at 24 h, 3.125 microg/ml [5] was 81% and the viability at 24 h, 6.25 microg/ml [6] was 57%. For the same compound, the Activity (Staphylococcus aureus [7]) was 18%.
In the case of `O=C1c2ccccc2-[n+]2ccc3c([nH]c4ccc(-c5ccccc5Cl)cc43)c21.[Cl-]`, the Activity (Escherichia coli [8]) is reported as “Active” and the Activity (Staphylococcus aureus [9]) is reported as 15%.
With `O=C1c2ccccc2-[n+]2ccc3c([nH]c4ccc(-c5ccccc5F)cc43)c21.[Cl-]` the Activity (Escherichia coli [10]) was “inactive”, the Ratio (Escherichia coli [11]) was 12 and the Activity (Staphylococcus aureus [12]) was 12%.
